Measurements as given in patent US5690957A, “Prostaglandin derivatives” (Ono Pharmaceutical Co., Ltd., priority 1995, dated 1997).

Tests used:
[1] = Blood flow increasing effect in anesthetized rats (laser-Doppler cutaneous blood flow, AUC); format: in vivo; details: i.v., rat
Protocol: (§1) The blood flow increasing effect and hypotensive effect of the compounds of the present invention were determined by the following experiment.
(§2) Male rats weighing 200-350 g were anesthetized with urethane (25% urethane, 6 ml/kg, s.c.). The carotid artery and jugular vein were cannulated with polyethylene tubes for measurement of blood pressure and for drug injection, respectively. Blood pressure was obtained with a disposable pressure transducer kit (Spectramed, Ltd) and recorded with a recticoder (model RJG-4128, Nihon kohden, Ltd). Blood flow was monitored as cutaneous blood flow of the dorsum pedis using an attachment-type laser-Doppler flowmeter (model ALF21, Advance, Ltd). Measurements were taken until the values recovered to the level observed before injection of drugs. Injection time was about 10 seconds. The hypotensive effect and blood flow increasing effect were calculated as the maximal hypotensive activity (mmHg) and the area under the curve (AUC) after injection of drugs, respectively.
(§3) The results were represented by the dose required to obtain an effective increase in blood flow (main effect), and by the hypotensive effect (side effect) at the same dose.
(§4) The compounds of the present invention were administered in the form of a liposome formulation (as prepared in Example 4 below). As a comparative compound, PGE1 1-decanoyloxyethyl ester (described in Example 10 of the specification of Japanese Patent Kokai No. 59-206349) was administered in the form of a lipid emulsion (prepared in Reference Example 8 in the present specification).
The effectiveness of increasing blood flow was determined by the following method. […] In the above-described experimental assessment system for the compounds of the present invention, the AUG for this PGE1 lipid emulsion (5 μg/kg, i.v.) was 771 on the blood flow increasing effect; thus this value was chosen as an effective value for increase in blood flow.

[2] = Hypotensive effect in anesthetized rats (carotid artery blood pressure); format: in vivo; details: rat; for Hypotensive effect, Maximum hypotension on dose (A): at dose (A) giving AUC = 771, i.v.; for Hypotensive effect, Maximum hypotension: i.v.
Protocol: as §1, §2, §3, §4

[3] = dose 3 μg/kg, Examples as liposome formulation, comparative compound as lipid emulsion
[4] = dose 10 μg/kg, Examples as liposome formulation, comparative compound as lipid emulsion
[5] = dose 30 μg/kg, liposome formulation
[6] = Examples as liposome formulation, comparative compound as lipid emulsion
[7] = dose 1 μg/kg, Examples as liposome formulation, comparative compound as lipid emulsion

Compound | Blood flow increasing effect, Total AUC [1, 3] | Blood flow increasing effect, Total AUC [1, 4] | Blood flow increasing effect, Total AUC [1, 5] | Blood flow increasing effect, Dose (A) required to obtain AUC = 771 [1, 6] | Hypotensive effect, Maximum hypotension on dose (A) [2, 6] | Hypotensive effect, Maximum hypotension [2, 3] | Hypotensive effect, Maximum hypotension [2, 4] | Hypotensive effect, Maximum hypotension [2, 5] | Blood flow increasing effect, Total AUC [1, 7] | Hypotensive effect, Maximum hypotension [2, 7]
CCCCCCCCCCCCCCCCOCC(=O)OCCOC(=O)CCCCCC[C@H]1C(=O)C[C@@H](O)[C@@H]1/C=C/[C@@H](O)CCCCC [Example 2, PGE1 2-(hexadecyloxyacetoxy)ethyl ester] | 329 | 807 | 3248 | 8.14 µg/kg | 6.1 mmHG | 3 mmHg | 7 mmHg | 20 mmHg | – | –
CCCCCCCCCCCCOCC(=O)OCCOC(=O)CCCCCC[C@H]1C(=O)C[C@@H](O)[C@@H]1/C=C/[C@@H](O)CCCCC [Example 3, PGE1 2-(dodecyloxyacetoxy)ethyl ester] | 4028 | 5391 | – | 1.14 µg/kg | 2.8 mmHG | 9 mmHg | 9 mmHg | – | 227 | 2 mmHg
CCCCCCCCCCCC(=O)OCCOC(=O)CCCCCC[C@H]1C(=O)C[C@@H](O)[C@@H]1/C=C/[C@@H](O)CCCCC [Example 1, PGE1 (dodecanoyloxy)ethyl ester] | 1914 | 3528 | – | 1.47 µg/kg | 4.3 mmHG | 7 mmHg | 13 mmHg | – | 175 | 3 mmHg
CCCCCCCCCC(=O)OC(C)OC(=O)CCCCCC[C@H]1C(=O)C[C@@H](O)[C@@H]1/C=C/[C@@H](O)CCCCC (some centres unmarked) [Comparative compound, PGE1 1-decanoyloxyethyl ester, reference compound] | 222 | 498 | – | 16.70 µg/kg | 30.2 mmHG | 9 mmHg | 18 mmHg | – | 92 | 1 mmHg
